This test concerns the target T1, SHP2 protein (Homo sapiens, UniProt Q06124).
T1 sequence (Q06124 1-593): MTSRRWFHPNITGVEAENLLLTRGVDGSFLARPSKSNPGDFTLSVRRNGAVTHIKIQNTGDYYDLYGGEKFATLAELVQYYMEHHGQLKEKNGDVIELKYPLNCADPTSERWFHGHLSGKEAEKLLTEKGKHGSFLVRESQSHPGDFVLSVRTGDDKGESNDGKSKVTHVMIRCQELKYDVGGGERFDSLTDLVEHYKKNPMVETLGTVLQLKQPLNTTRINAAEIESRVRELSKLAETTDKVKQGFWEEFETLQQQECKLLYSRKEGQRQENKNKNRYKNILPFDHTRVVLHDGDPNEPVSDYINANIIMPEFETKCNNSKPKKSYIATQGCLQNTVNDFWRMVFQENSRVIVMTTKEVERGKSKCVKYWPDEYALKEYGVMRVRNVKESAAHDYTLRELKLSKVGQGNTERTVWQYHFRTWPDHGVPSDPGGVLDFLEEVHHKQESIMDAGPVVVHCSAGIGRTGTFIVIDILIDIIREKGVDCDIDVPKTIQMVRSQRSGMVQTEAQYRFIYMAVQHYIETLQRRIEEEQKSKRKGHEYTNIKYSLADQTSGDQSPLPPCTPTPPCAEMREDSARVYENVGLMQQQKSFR
In words: Measurement of SHP2 protein degradation in MV-4-11 cells (western blotting). The class given is cell-based. Also noted: endogenous in cells. The following applies: harvested after 24 hours. The gist of the method: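 MV-4-11 cells in IMDM/5% FBS were exposed to compound at final 0.01, 0.1, 1 μM or 0.001, 0.01, 0.1 μM for 24 h, DMSO as negative control. BCA-normalised lysates were immunoblotted for SHP2 with GAPDH as loading control, read on LI-COR Odyssey.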
A general note: In western blotting, separated proteins are transferred to a membrane and probed.

Drawing on US20260144788A1, “COMPOUND FOR SHP2 PROTEIN DEGRADATION AND MEDICAL USES THEREOF” (UBIX THERAPEUTICS, INC., priority 2022, published 2026), this text covers SHP2% degradation for 5 compounds.

On to `Cc1ncsc1-c1ccc(CNC(=O)[C@@H]2C[C@@H](O)CN2C(=O)[C@@H](NC(=O)C2(F)CC2)C(C)(C)C)c(OC2CCN(C(=O)C3(F)CCN(c4nccc(Sc5cnc(N6CCC(C)(CN)CC6)cn5)c4Cl)CC3)CC2)c1` [Example 69, (2S,4R)—N-(2-((1-(1-(4-((5-(4-(aminomethyl)-4-methylpiperidin-1-yl)pyrazin-2-yl)thio)-3-chloropyridin-2-yl)-4-fluoropiperidine-4-carbonyl)piperidin-4-yl)oxy)-4-(4-methylthiazol-5-yl)benzyl)-1-((S)-2-(1-fluorocyclopropane-1-carboxamido)-3,3-dimethylbutanoyl)-4-hydroxypyrrolidine-2-carboxamide], for which the SHP2% degradation runs as follows: (0.01 μM) 19.9%; (0.1 μM) 99.8%.

For `Cc1ncsc1-c1ccc(CNC(=O)[C@@H]2C[C@@H](O)CN2C(=O)[C@@H](NC(=O)C2(F)CC2)C(C)(C)C)c(OC2CC3(CCN(C(=O)C4CCN(c5nccc(Sc6cnc(N7CCC(C)(CN)CC7)cn6)c5Cl)CC4)CC3)C2)c1` [Example 57, (2S,4R)—N-(2-((7-(1-(4-((5-(4-(aminomethyl)-4-methylpiperidin-1-yl)pyrazin-2-yl)thio)-3-chloropyridin-2-yl)piperidine-4-carbonyl)-7-azaspiro[3.5]nonan-2-yl)oxy)-4-(4-methylthiazol-5-yl)benzyl)-1-((S)-2-(1-fluorocyclopropane-1-carboxamido)-3,3-dimethylbutanoyl)-4-hydroxypyrrolidine-2-carboxamide], the SHP2% degradation reads like this: (0.01 μM) 65.7%; (0.1 μM) 96.8%.

Consider `Cc1ncsc1-c1ccc(CNC(=O)[C@@H]2C[C@@H](O)CN2C(=O)[C@@H](NC(=O)C2(F)CC2)C(C)(C)C)c(OC2CCN(C[C@H]3CC[C@H](Nc4nccc(Sc5cnc(N6CCC(C)(CN)CC6)cn5)c4Cl)CC3)CC2)c1` [Example 7, (2S,4R)—N-(2-((1-(((1R,4S)-4-((4-((5-(4-(aminomethyl)-4-methylpiperidin-1-yl)pyrazin-2-yl)thio)-3-chloropyridin-2-yl)amino)cyclohexyl)methyl)piperidin-4-yl)oxy)-4-(4-methylthiazol-5-yl)benzyl)-1-((S)-2-(1-fluorocyclopropane-1-carboxamido)-3,3-dimethylbutanoyl)-4-hydroxypyrrolidine-2-carboxamide], for which the SHP2% degradation worked out at 10.1% (0.01 μM) and 55.4% (0.1 μM).

For the compound `Cc1ncsc1-c1ccc(CNC(=O)[C@@H]2C[C@@H](O)CN2C(=O)[C@@H](NC(=O)C2(F)CC2)C(C)(C)C)c(OCCN2CCN(C(=O)CNc3cccc(Sc4cnc(N5CCC(C)(CN)CC5)cn4)c3Cl)CC2)c1` [Example 4, (2S,4R)—N-(2-(2-(4-((3-((5-(4-(aminomethyl)-4-methylpiperidin-1-yl)pyrazin-2-yl)thio)-2-chlorophenyl)glycyl)piperazin-1-yl)ethoxy)-4-(4-methylthiazol-5-yl)benzyl)-1-((S)-2-(1-fluorocyclopropane-1-carboxamido)-3,3-dimethylbutanoyl)-4-hydroxypyrrolidine-2-carboxamide], the SHP2% degradation is 42.9% (0.01 μM) and 95.6% (0.1 μM).

Regarding `Cc1ncsc1-c1ccc(CNC(=O)[C@@H]2C[C@@H](O)CN2C(=O)[C@@H](NC(=O)C2(F)CC2)C(C)(C)C)c(O[C@H]2CC[C@H](C(=O)N3CC(Nc4cccc(Sc5cnc(N6CCC(C)(CN)CC6)cn5)c4Cl)C3)CC2)c1` [Example 11, (2S,4R)—N-(2-(((1R,4S)-4-(3-((3-((5-(4-(aminomethyl)-4-methylpiperidin-1-yl)pyrazin-2-yl)thio)-2-chlorophenyl)amino)azetidine-1-carbonyl)cyclohexyl)oxy)-4-(4-methylthiazol-5-yl)benzyl)-1-((S)-2-(1-fluorocyclopropane-1-carboxamido)-3,3-dimethylbutanoyl)-4-hydroxypyrrolidine-2-carboxamide], the SHP2% degradation reads like this: (0.01 μM) 83%; (0.1 μM) 97.9%.
